The supplement of paper PMC10307832

Assays:
Assay in all cases: relative viability (nuclei count vs DMSO), 5 days (fraction); higher = more cells survive
Metformin + Lapatinib = compound: CN(C)C(=N)NC(=N)N [Metformin] + CS(=O)(=O)CCNCc1ccc(-c2ccc3ncnc(Nc4ccc(OCc5cccc(F)c5)c(Cl)c4)c3c2)o1 [Lapatinib] (partner 2 µM)
Outline: (§1)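 Cells from lung cancer lines were seeded into 1536-well plates and, one day later, dosed by pin tool. Treatments were either a single drug or a fixed dose of an anchor drug with five library-drug doses (not always all listed) in √10 steps. After 5 days, nuclei were stained in a one-step fixation (final 0.05% Triton X-100, 1% formaldehyde, 1 ug/ml Hoechst) and counted on 4× images, and relative viability is the treated-to-vehicle nuclei ratio, as the median of duplicate plates.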

Metformin + Pictilisib = compound: CN(C)C(=N)NC(=N)N [Metformin] + CS(=O)(=O)N1CCN(Cc2cc3nc(-c4cccc5[nH]ncc45)nc(N4CCOCC4)c3s2)CC1 [Pictilisib] (partner 1 µM)
Outline: as §1

Apatinib + Lapatinib = compound: N#CC1(c2ccc(NC(=O)c3cccnc3NCc3ccncc3)cc2)CCCC1 [Apatinib] + CS(=O)(=O)CCNCc1ccc(-c2ccc3ncnc(Nc4ccc(OCc5cccc(F)c5)c(Cl)c4)c3c2)o1 [Lapatinib] (partner 2 µM)
Outline: as §1

Apatinib + Alpelisib = compound: N#CC1(c2ccc(NC(=O)c3cccnc3NCc3ccncc3)cc2)CCCC1 [Apatinib] + Cc1nc(NC(=O)N2CCC[C@H]2C(N)=O)sc1-c1ccnc(C(C)(C)C(F)(F)F)c1 [Alpelisib] (partner 2 µM)
Outline: as §1

Row | Cell Line | relative viability (Metformin + Lapatinib; first compound 10 µM) | relative viability (Metformin + Lapatinib; first compound 31.62 µM) | relative viability (Metformin + Lapatinib; first compound 100 µM) | relative viability (Metformin + Lapatinib; first compound 316.23 µM) | relative viability (Metformin + Lapatinib; first compound 1000 µM) | relative viability (Metformin + Pictilisib; first compound 10 µM) | relative viability (Metformin + Pictilisib; first compound 31.62 µM) | relative viability (Metformin + Pictilisib; first compound 100 µM) | relative viability (Metformin + Pictilisib; first compound 316.23 µM) | relative viability (Metformin + Pictilisib; first compound 1000 µM) | relative viability (Apatinib + Lapatinib; first compound 0.08 µM) | relative viability (Apatinib + Lapatinib; first compound 0.253 µM) | relative viability (Apatinib + Lapatinib; first compound 0.8 µM) | relative viability (Apatinib + Lapatinib; first compound 2.53 µM) | relative viability (Apatinib + Lapatinib; first compound 8 µM) | relative viability (Apatinib + Alpelisib; first compound 0.08 µM) | relative viability (Apatinib + Alpelisib; first compound 0.253 µM) | relative viability (Apatinib + Alpelisib; first compound 0.8 µM) | relative viability (Apatinib + Alpelisib; first compound 2.53 µM) | relative viability (Apatinib + Alpelisib; first compound 8 µM)
1 | NCI-H2126 | 0.678 | 0.774 | 0.771 | 0.787 | 0.749 | 0.519 | 0.474 | 0.514 | 0.472 | 0.485 | 0.757 | 0.768 | 0.762 | 0.711 | 0.78 | 0.818 | 0.761 | 0.758 | 0.743 | 0.767
2 | Calu-6 | 0.864 | 1.03 | 0.979 | 0.913 | 1.03 | 0.733 | 0.886 | 0.769 | 0.531 | 0.413 | 1.13 | 1.1 | 0.988 | 0.919 | 0.789 | 1.02 | 1.12 | 0.956 | 0.895 | 0.73
3 | NCI-H2228 | 1.46 | 1.25 | – | 0.974 | 1.24 | 0.306 | 0.294 | – | 0.227 | 0.448 | 1.01 | 1.05 | 0.986 | 0.835 | 0.644 | 0.785 | 0.738 | 0.648 | 0.542 | 0.527
4 | IA-LM | 1.13 | 0.944 | – | 0.886 | 1.21 | 0.337 | 0.462 | 0.41 | 0.38 | 0.303 | 0.814 | 0.677 | 0.772 | 0.6 | 0.305 | 0.793 | 0.673 | 0.665 | 0.558 | 0.337
5 | NCI-H520 | 0.849 | 1.07 | 0.948 | 0.768 | 0.892 | 0.302 | 0.31 | 0.28 | 0.258 | 0.361 | 0.981 | 1.12 | 0.856 | 0.767 | 0.659 | 0.924 | 0.865 | 0.918 | 0.685 | 0.633
6 | HCC-366 | 1.05 | 1.05 | 1 | 1.07 | 1.01 | 0.141 | 0.213 | 0.138 | 0.115 | 0.185 | 1.07 | 1.14 | 0.98 | 0.979 | 1.02 | 0.417 | 0.46 | 0.4 | 0.308 | 0.265
7 | EMC-BAC-2 | 0.886 | 0.951 | 0.891 | 0.843 | 0.925 | 0.475 | 0.536 | 0.528 | 0.523 | 0.523 | 0.954 | 0.886 | 0.878 | 0.877 | 0.807 | 0.759 | 0.785 | 0.76 | 0.751 | 0.678
8 | NCI-H647 | 1.04 | 1.14 | 0.933 | 1.04 | 1.1 | 0.469 | 0.535 | 0.479 | 0.441 | 0.292 | 1.35 | 1.13 | 0.925 | 1.02 | 0.858 | 1.39 | 1.21 | 1.1 | 0.799 | 0.706
9 | NCI-H1944 | 0.686 | 0.961 | 0.931 | 0.751 | 0.886 | 0.324 | 0.351 | 0.371 | 0.293 | 0.338 | 0.832 | 0.863 | 0.736 | 0.745 | 0.739 | 0.868 | 0.905 | 0.74 | 0.798 | 0.866
10 | NCI-H1395 | 1.11 | 1.25 | 1.36 | 0.963 | 0.576 | 0.64 | 0.728 | 0.653 | 0.81 | 0.593 | 0.848 | 1.31 | 1.17 | 0.855 | 0.901 | 1.23 | 1.16 | 1.06 | 1.18 | 0.931
11 | SK-MES-1 | 0.452 | 0.488 | 0.516 | 0.463 | 0.485 | 0.424 | 0.34 | 0.362 | 0.378 | 0.414 | 0.473 | 0.473 | 0.512 | 0.414 | 0.502 | 0.825 | 0.928 | 0.822 | 0.929 | 0.658
12 | EPLC-272H | 1.22 | 1.09 | 1.09 | 1.15 | 1.05 | 0.362 | 0.314 | 0.364 | 0.305 | 0.302 | 1.13 | 0.874 | 1.11 | 0.708 | 1.05 | 1.04 | 0.904 | 0.841 | 0.971 | 0.903
13 | EBC-1 | 0.182 | 0.181 | 0.23 | 0.281 | 0.248 | 0.508 | 0.444 | 0.467 | 0.306 | 0.313 | 0.194 | 0.197 | 0.235 | 0.231 | 0.237 | 0.844 | 0.935 | 0.88 | 0.734 | 0.404
14 | NCI-H2087 | 0.597 | 0.902 | 1.02 | 1.06 | 0.895 | 0.909 | 1.01 | 0.772 | 0.782 | 0.957 | 0.877 | 0.982 | 1.09 | 0.793 | 0.891 | 1.19 | 1.07 | 1.03 | 0.904 | 0.666
15 | PC-3 [JPC-3] | 0.453 | 0.46 | 0.441 | 0.435 | 0.447 | 0.773 | 0.728 | 0.771 | 0.751 | 0.709 | 0.472 | 0.441 | 0.444 | 0.394 | 0.43 | 1 | 0.996 | 0.989 | 0.938 | 0.888
16 | NCI-H661 | 0.58 | 0.783 | 0.811 | 0.688 | 0.57 | 0.406 | 0.464 | 0.485 | 0.552 | 0.518 | 0.598 | 0.59 | 0.504 | 0.477 | 0.391 | 0.576 | 0.43 | 0.564 | 0.623 | 0.597
